Reference: US10947242B2, “[1,2,4]triazolo[1,5and#8208;A]pyrimidine compounds as PDE2 inhibitors” (Janssen Pharmaceutica NV, priority 2016, dated 2021)
Like-named read-outs stand apart in the source and are kept apart here.

Legend:
[1] = molecular target: T1, Human recombinant PDE2A (hPDE2A) (Homo sapiens, UniProt O00408); assay: In vitro assay PDE2A (SPA, 3H-cGMP hydrolysis); format: biochemical; details: for Emax: read-out: hPDE2A Emax
T1 construct: His tag (inferred from metal chelate purification); made in house; host or cells: Sf9 insect cells (baculovirus)

[2] = molecular target: T2, Human recombinant PDE3A (hPDE3A) (Homo sapiens, UniProt Q14432); assay: In vitro assay PDE3A (SPA, 3H-cAMP hydrolysis); format: biochemical; details: for IC50: hPDE3B pIC50, read-out: pIC50 (converted); for Emax: read-out: hPDE3B Emax, read-out: Emax;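 as to all read-outs here: the method names PDE3A and the table heading PDE3B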
T2 construct: purchased Scottish Biomedical; host or cells: Sf9 insect cells
In short: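 Radiometric SPA measuring [3H]-cAMP hydrolysis (0.4 μM cAMP, 2.4 μCi/ml) over 60 min at room temperature, in Tris pH 7.8 buffer with MgCl2 and EGTA, 1% DMSO. Enzyme: recombinant human brain PDE3A expressed in Sf9 cells, used as partially purified lysate. Counts compared with enzyme-free blanks and vehicle controls.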

[3] = molecular target: T3, Human recombinant PDE10A (hPDE10A) (Homo sapiens, UniProt Q9Y233); assay: In vitro assay PDE10A, human clone (SPA, 3H-cAMP hydrolysis); format: biochemical
T3 construct: His tag (inferred from metal chelate purification); made in house; host or cells: Sf9 insect cells (baculovirus)
In short: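 Hydrolysis of 3H-cAMP (60 nM cAMP, 0.008 μCi tracer) proceeded for 60 min at room temperature, with the product detected by SPA bead scintillation counting. The enzyme was hPDE10A from baculovirus-infected Sf9 cells in Tris pH 7.8 buffer with MgCl2 and EGTA, and compounds were at 1% DMSO final. Blanks lacked enzyme.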

[4] = human recombinant PDE2A, 10 μM cGMP substrate, read-out: hPDE2A pIC50 (converted)
[5] = read-out: hPDE2A pIC50 (converted)
[6] = human clone (h), default, read-out: hPDE10A2 Emax
[7] = human clone (h), default, read-out: hPDE10A2 pIC50 (converted)
[8] = hPDE2A pIC50, human recombinant PDE2A, 10 μM cGMP substrate
[9] = human clone by default (no (r) mark), read-out: hPDE10A2 or rPDE10A2 Emax
[10] = human clone by default (no (r) mark), read-out: hPDE10A2 or rPDE10A2 pIC50 (converted)

T3 sequence (Q9Y233 267-1055): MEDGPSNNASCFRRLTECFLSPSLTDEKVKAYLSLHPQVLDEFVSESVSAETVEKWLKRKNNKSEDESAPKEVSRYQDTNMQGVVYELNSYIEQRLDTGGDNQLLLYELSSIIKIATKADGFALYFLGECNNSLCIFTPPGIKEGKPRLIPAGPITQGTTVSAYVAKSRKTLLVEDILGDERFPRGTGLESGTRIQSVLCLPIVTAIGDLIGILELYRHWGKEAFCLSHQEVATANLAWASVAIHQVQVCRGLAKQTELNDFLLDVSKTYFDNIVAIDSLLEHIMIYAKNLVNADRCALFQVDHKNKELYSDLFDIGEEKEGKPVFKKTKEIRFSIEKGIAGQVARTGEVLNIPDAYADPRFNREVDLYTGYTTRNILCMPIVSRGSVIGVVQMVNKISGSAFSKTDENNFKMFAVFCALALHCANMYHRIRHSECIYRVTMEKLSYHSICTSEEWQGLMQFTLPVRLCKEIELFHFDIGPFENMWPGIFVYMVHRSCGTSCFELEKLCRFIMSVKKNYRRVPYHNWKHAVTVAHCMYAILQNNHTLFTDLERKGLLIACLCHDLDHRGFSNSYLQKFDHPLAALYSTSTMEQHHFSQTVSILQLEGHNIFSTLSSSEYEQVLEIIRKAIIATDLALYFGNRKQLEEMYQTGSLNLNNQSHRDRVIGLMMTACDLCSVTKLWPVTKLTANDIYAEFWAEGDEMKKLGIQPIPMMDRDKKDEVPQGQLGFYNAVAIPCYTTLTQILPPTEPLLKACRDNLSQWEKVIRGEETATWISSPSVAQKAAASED
T2 sequence (Q14432 whole entry): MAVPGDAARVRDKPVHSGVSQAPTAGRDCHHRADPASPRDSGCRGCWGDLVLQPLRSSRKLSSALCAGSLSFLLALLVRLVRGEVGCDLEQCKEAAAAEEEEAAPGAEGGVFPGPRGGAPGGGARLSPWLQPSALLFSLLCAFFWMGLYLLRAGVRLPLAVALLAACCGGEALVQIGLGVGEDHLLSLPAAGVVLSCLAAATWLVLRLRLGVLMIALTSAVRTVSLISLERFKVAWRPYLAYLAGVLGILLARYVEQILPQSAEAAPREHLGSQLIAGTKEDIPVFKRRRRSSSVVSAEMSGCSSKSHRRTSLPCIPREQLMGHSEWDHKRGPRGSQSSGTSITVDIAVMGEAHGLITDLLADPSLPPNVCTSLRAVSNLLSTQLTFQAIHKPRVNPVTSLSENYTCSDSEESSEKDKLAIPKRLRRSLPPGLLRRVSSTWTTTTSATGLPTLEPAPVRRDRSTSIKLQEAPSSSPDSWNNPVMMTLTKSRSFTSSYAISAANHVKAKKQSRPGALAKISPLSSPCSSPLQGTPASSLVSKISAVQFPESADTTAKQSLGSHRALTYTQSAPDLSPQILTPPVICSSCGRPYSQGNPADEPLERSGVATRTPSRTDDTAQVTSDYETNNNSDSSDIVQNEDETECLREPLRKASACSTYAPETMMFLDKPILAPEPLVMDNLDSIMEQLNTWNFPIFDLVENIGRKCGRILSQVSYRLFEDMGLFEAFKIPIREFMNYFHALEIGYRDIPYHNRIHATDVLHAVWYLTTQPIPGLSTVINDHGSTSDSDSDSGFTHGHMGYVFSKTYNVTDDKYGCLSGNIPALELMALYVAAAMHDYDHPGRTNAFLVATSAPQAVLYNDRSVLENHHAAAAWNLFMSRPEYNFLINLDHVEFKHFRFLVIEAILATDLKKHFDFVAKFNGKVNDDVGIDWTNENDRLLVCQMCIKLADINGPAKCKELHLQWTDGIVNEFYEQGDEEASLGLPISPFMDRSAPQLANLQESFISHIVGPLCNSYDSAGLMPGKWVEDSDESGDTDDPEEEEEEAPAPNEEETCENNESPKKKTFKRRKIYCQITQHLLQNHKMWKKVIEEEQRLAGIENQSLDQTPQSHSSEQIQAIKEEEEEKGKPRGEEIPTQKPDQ
T1 sequence (O00408 whole entry): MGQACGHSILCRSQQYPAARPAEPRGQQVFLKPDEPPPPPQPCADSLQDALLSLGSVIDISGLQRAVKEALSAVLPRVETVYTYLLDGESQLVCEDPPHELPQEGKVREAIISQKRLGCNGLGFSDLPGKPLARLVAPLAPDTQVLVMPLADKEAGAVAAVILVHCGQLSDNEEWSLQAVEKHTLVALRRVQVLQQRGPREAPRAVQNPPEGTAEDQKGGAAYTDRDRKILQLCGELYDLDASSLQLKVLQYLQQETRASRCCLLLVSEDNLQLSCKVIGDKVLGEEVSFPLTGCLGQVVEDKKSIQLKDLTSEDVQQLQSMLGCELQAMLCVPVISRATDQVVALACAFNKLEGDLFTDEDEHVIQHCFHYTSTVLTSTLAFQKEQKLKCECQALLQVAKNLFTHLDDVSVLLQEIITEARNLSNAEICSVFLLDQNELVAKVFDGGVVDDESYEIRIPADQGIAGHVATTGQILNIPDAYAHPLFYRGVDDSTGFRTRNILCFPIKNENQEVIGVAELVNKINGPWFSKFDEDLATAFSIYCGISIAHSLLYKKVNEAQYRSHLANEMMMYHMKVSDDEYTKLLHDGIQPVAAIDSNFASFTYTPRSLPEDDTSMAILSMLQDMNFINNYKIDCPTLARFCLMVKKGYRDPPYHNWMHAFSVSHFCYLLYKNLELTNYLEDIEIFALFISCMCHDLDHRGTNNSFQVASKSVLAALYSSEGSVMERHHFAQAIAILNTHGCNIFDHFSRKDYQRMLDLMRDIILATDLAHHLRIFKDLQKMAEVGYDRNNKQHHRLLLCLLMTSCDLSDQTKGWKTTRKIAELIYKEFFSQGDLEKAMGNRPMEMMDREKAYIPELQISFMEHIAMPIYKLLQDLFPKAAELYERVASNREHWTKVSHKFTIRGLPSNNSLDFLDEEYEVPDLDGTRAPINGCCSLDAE

IC50 [1, 4]	Emax ([1]; human recombinant PDE2A)	Emax [1]	IC50 [1, 5]	IC50 [2]	Emax [2]	Emax [3, 6]	IC50 [3, 7]	melting point	SMILES	IC50 ([1]; hPDE2A pIC50)	IC50 [1, 8]	Emax [3, 9]	IC50 [3, 10]
> 10000 nM	3%	3%	> 10000 nM	> 10000 nM	13%	10%	> 10000 nM	117.5 °C	Cc1cc(C(=O)N2CCC[C@](C)(c3cc(C(F)F)nc4ncnn34)C2)cc(C)n1 (single isomer, unassigned) [Compound 211]	–	–	–	–
0.977 nM	100%	100%	0.977 nM	1050 nM	92%	99%	38 nM	188.75 °C	C[C@@H]1CCN(C(=O)c2ccc(Cl)c(Cl)c2)C[C@H]1c1cc(C(F)F)nc2ncnn12 [Compound 111]	–	–	–	–
1.66 nM	101%	101%	1.66 nM	955 nM	92%	99%	74.1 nM	179.82 °C	COc1cc(C(=O)N2CC[C@@H](C)[C@H](c3cc(C(F)F)nc4ncnn34)C2)ccc1C1CC1 [Compound 118]	–	–	–	–
28.2 nM	100%	100%	28.2 nM	> 10000 nM	35%	84%	1350 nM	229.91 °C	Cc1cc(C)nc(C(=O)N2CC[C@@H](C)[C@H](c3cc(C(F)F)nc4ncnn34)C2)c1 [Compound 137]	–	–	–	–
18.6 nM	99%	99%	18.6 nM	4570 nM	57%	97%	263 nM	167.52 °C	C[C@@H]1CCN(C(=O)c2ccc(F)c(C(F)(F)F)c2)C[C@H]1c1cc(C(F)F)nc2ncnn12 [Compound 194]	–	–	–	–
2340 nM	28%	28%	2340 nM	> 10000 nM	11%	23%	> 10000 nM	169.7 °C	Cc1csc(C(=O)N2CC[C@H](C)[C@@H](c3cc(C(F)F)nc4ncnn34)C2)c1 [Compound 213]	–	–	–	–
–	–	99%	2.95 nM	7410 nM	61%	95%	162 nM	247.4 °C	Cc1cc([C@@H]2CN(C(=O)c3cc(Cl)ncc3Cl)CC[C@H]2C)n2ncnc2n1 [Compound 271]	–	–	95%	162 nM
–	–	100%	0.501 nM	479 nM	95%	–	–	180.27 °C	C[C@@H]1CCN(C(=O)c2ccc3ncccc3c2)C[C@H]1c1cc(C(F)F)nc2ncnn12 [Compound 322]	–	–	99%	18.6 nM
–	–	100%	0.851 nM	263 nM	97%	–	–	204.06 °C	C[C@@H]1CCN(C(=O)c2cnc3ccccc3c2)C[C@H]1c1cc(C(F)F)nc2ncnn12 [Compound 324]	–	–	100%	66.1 nM
–	–	100%	1.15 nM	309 nM	98%	–	–	226.36 °C	C[C@@H]1CCN(C(=O)c2cnc3c(F)cccc3c2)C[C@H]1c1cc(C(F)F)nc2ncnn12 [Compound 325]	–	–	98%	64.6 nM
–	–	101%	0.417 nM	77.6 nM	99%	–	–	194.86 °C	C[C@@H]1CCN(C(=O)c2ccc3c(ccn3C)c2)C[C@H]1c1cc(C(F)F)nc2ncnn12 [Compound 327]	–	–	100%	20.4 nM
–	–	100%	0.55 nM	204 nM	95%	–	–	227.79 °C	C[C@@H]1CCN(C(=O)c2cnc3c(Cl)cccc3c2)C[C@H]1c1cc(C(F)F)nc2ncnn12 [Compound 329]	–	–	100%	21.4 nM
–	–	98%	0.479 nM	50.1 nM	99%	–	–	193.87 °C	C[C@@H]1CCN(C(=O)c2ccc3ccccc3c2)C[C@H]1c1cc(C(F)F)nc2ncnn12 [Compound 331]	–	–	100%	14.5 nM

SMILES	IC50 [1, 4]	Emax ([1]; human recombinant PDE2A)	Emax [1]	IC50 [1, 5]	IC50 [2]	Emax [2]	Emax [3, 6]	IC50 [3, 7]	melting point	IC50 ([1]; hPDE2A pIC50)	IC50 [1, 8]	Emax [3, 9]	IC50 [3, 10]
Cc1cc(C(=O)N2CC[C@@H](C)[C@H](c3cc(C)nc4ncnn34)C2)cc(C2CC2)n1 [Compound 23]	–	–	101%	–	1050 nM	90%	100%	7.08 nM	169.13 °C	0.468 nM	0.468 nM	–	–
Cc1cc(C)cc(C(=O)N2CC[C@H](C)[C@@H](c3cc(C(F)F)nc4ncnn34)C2)c1 [Compound 214]	–	–	9%	–	> 10000 nM	9%	30%	> 10000 nM	203.97 °C	6310 nM	6310 nM	30%	> 10000 nM
O=C(c1cc(Cl)cc(Cl)c1)N1[C@H]2CC[C@H](c3cc(C(F)F)nc4ncnn34)[C@@H]1CC2 [Compound 333]	–	–	99%	8.13 nM	6920 nM	63%	–	–	291.55 °C	–	–	93%	708 nM
CC(C)n1ccc2cc(C(=O)N3[C@H]4CC[C@H](c5cc(C(F)F)nc6ncnn56)[C@@H]3CC4)ccc21 [Compound 355]	–	–	99%	0.933 nM	724 nM	98%	–	–	146.08 °C	–	–	98%	234 nM
O=C(c1cn2ccsc2n1)N1[C@H]2CC[C@H](c3cc(C(F)F)nc4ncnn34)[C@@H]1CC2 [Compound 360]	–	–	97%	40.7 nM	8510 nM	50%	–	–	264.8 °C	–	–	55%	6920 nM
Cc1cc(C(=O)N2[C@H]3CC[C@H](c4cc(C(F)F)nc5ncnn45)[C@@H]2CC3)ccc1Cl [Compound 375]	–	–	101%	3.55 nM	4470 nM	73%	–	–	171.51 °C	–	–	94%	813 nM
COc1ccc(C(=O)N2[C@H]3CC[C@H](c4cc(C(F)F)nc5ncnn45)[C@@H]2CC3)cc1Cl [Compound 376]	–	–	101%	4.27 nM	3390 nM	79%	–	–	175.71 °C	–	–	97%	309 nM
O=C(c1ccc(F)c(Cl)c1)N1[C@H]2CC[C@H](c3cc(C(F)F)nc4ncnn34)[C@@H]1CC2 [Compound 377]	–	–	99%	17.8 nM	9770 nM	47%	–	–	183.67 °C	–	–	89%	1290 nM
